# Source: patent publication US20230085307A1, “PYRIDAZINONE COMPOUND AND HERBICIDE” (NISSAN CHEMICAL CORPORATION, priority 2019, published 2023)
# Key:
# [1] = system: southern crabgrass; test: Test Example 5: herbicidal effect by foliage application, plastic box (Table 20, symbol F); assay type: in vivo, southern crabgrass (Digitaria ciliaris); conditions: foliage application, three weeks after application
# Summary of the method: (§1)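 Plants were sown into sterilized diluvial soil under about 1.5 cm cover and kept in a greenhouse at 25° C. to 30° C. Fourteen days on, foliage received an even spray of the diluted emulsion. Herbicidal or crop effect was judged three weeks afterwards.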
# [2] = system: false cleavers; test: Test Example 4: herbicidal effect by soil treatment (Table 19, symbol Q); assay type: in vivo, false cleavers (Galium spurium)
# Summary of the method: (§2)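 Pre-emergence style soil spray: seeds under ~1.5 cm sterilized diluvial soil received a uniform coat of emulsion diluted to the predetermined herbicide amount. Greenhouse 25–30° C; readout at week three on previously defined criteria.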
# [3] = system: barnyard grass; test: Test Example 4: herbicidal effect by soil treatment (Table 19, symbol H); assay type: in vivo, barnyard grass (Echinochloa crus-galli)
# Summary of the method: as §2
# [4] = system: barnyard grass; test: Test Example 3: herbicidal effect by foliage application, Wagner pot (Table 18, symbol H); assay type: in vivo, barnyard grass (Echinochloa crus-galli)
# Summary of the method: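 Plants were sown in alluvial soil held under 0.1–0.5 cm standing water and grown 14 days in a greenhouse at 25–30 °C. An emulsifiable formulation, water-diluted to the set dose, was then sprayed onto the foliage, and effects were scored three weeks later using previously defined criteria.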
# [5] = system: lambsquarters; test: Test Example 5: herbicidal effect by foliage application, plastic box (Table 20, symbol O); assay type: in vivo, lambsquarters (Chenopodium album); conditions: foliage application, three weeks after application
# Summary of the method: as §1
# [6] = system: wild oat; test: Test Example 5: herbicidal effect by foliage application, plastic box (Table 20, symbol I); assay type: in vivo, wild oat (Avena fatua); conditions: foliage application, three weeks after application
# Summary of the method: as §1
# [7] = system: green foxtail; test: Test Example 5: herbicidal effect by foliage application, plastic box (Table 20, symbol G); assay type: in vivo, green foxtail (Setaria viridis); conditions: foliage application, three weeks after application
# Summary of the method: as §1
# [8] = system: blackgrass; test: Test Example 4: herbicidal effect by soil treatment (Table 19, symbol J); assay type: in vivo, blackgrass (Alopecurus myosuroides)
# Summary of the method: as §2
# [9] = system: Japanese bulrush; test: Test Example 1: herbicidal activity, application before weed generation under submerged conditions (Table 16, symbol B); assay type: in vivo, Japanese bulrush (Schoenoplectus juncoides)
# Summary of the method: (§3)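 Emulsion formulation, water-diluted to set dose, was put onto the flooded surface (4 cm depth, alluvial soil) the same day weeds were sown and 2.5-leaf rice transplanted. After 3 weeks at 25-30 °C under glass, each species was rated 0 (≤5% kill) to 5 (≥90% kill).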
# [10] = system: redroot pigweed; test: Test Example 5: herbicidal effect by foliage application, plastic box (Table 20, symbol N); assay type: in vivo, redroot pigweed (Amaranthus retroflexus); conditions: foliage application, three weeks after application
# Summary of the method: as §1
# [11] = system: persian speedwell; test: Test Example 5: herbicidal effect by foliage application, plastic box (Table 20, symbol R); assay type: in vivo, Persian speedwell (Veronica persica); conditions: foliage application, three weeks after application
# Summary of the method: as §1
# [12] = system: late watergrass; test: Test Example 1: herbicidal activity, application before weed generation under submerged conditions (Table 16, symbol A); assay type: in vivo, late watergrass (Echinochloa oryzicola)
# Summary of the method: as §3
# [13] = system: southern crabgrass; test: Test Example 4: herbicidal effect by soil treatment (Table 19, symbol F); assay type: in vivo, southern crabgrass (Digitaria ciliaris)
# Summary of the method: as §2
# [14] = system: chickweed; test: Test Example 4: herbicidal effect by soil treatment (Table 19, symbol P); assay type: in vivo, common chickweed (Stellaria media)
# Summary of the method: as §2
# [15] = system: windgrass; test: Test Example 5: herbicidal effect by foliage application, plastic box (Table 20, symbol L); assay type: in vivo, windgrass (Apera spica-venti); conditions: foliage application, three weeks after application
# Summary of the method: as §1
# [16] = system: late watergrass; test: Test Example 2: herbicidal activity, application during weed generation under submerged conditions (Table 17, symbol A); assay type: in vivo, late watergrass (Echinochloa oryzicola); conditions: application during weed generation, submerged conditions
# Summary of the method: (§4)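 In this pot test, flooded alluvial soil (water depth 4 cm) holds all three species sown as a mixture. Once seedlings have one to two leaves, the compound's emulsion, thinned with water to the intended dose, is poured on the water; grading follows after three weeks on the earlier criteria.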
# [17] = system: oval-leafed pondweed; test: Test Example 2: herbicidal activity, application during weed generation under submerged conditions (Table 17, symbol C); assay type: in vivo, oval-leafed pondweed (Monochoria vaginalis); conditions: application during weed generation, submerged conditions
# Summary of the method: as §4
# [18] = amount of applied herbicide 320 g/ha
# [19] = amount of applied herbicide 80 g/ha
SMILES,"F: southern crabgrass, herbicidal effect grade ([1]; 320 g/ha)","Q: false cleavers, herbicidal effect grade [2, 18]","H: barnyard grass, herbicidal effect grade [3, 18]",herbicidal effect on barnyard grass (H) ([4]; 320 g/ha),"O: lambsquarters, herbicidal effect grade ([5]; 320 g/ha)","I: wild oat, herbicidal effect grade ([6]; 320 g/ha)","G: green foxtail, herbicidal effect grade ([7]; 320 g/ha)","J: blackgrass, herbicidal effect grade [8, 18]","Herbicidal effect, B: Japanese bulrush [9, 18]","N: redroot pigweed, herbicidal effect grade ([10]; 320 g/ha)","R: persian speedwell, herbicidal effect grade ([11]; 320 g/ha)","Herbicidal effect, A: late watergrass [12, 18]","F: southern crabgrass, herbicidal effect grade [13, 18]","P: chickweed, herbicidal effect grade [14, 18]","L: windgrass, herbicidal effect grade ([15]; 320 g/ha)","herbicidal effect rating, A: late watergrass ([16]; AAH 320 g/ha)","herbicidal effect rating, C: oval-leafed pondweed ([17]; AAH 320 g/ha)",other results
COc1cc(F)ccc1-c1sc2cc(C)ccc2c1-c1c(O)c(C)nn(C)c1=O [3-055],5 (Herbicidal rate of 90% or more (almost completely withered)),3 (Herbicidal rate of 40% or more and less than 70%),0 (Herbicidal rate of 5% or less (almost no effect)),5 (Herbicidal rate of 90% or more (almost completely withered)),5 (Herbicidal rate of 90% or more (almost completely withered)),5 (Herbicidal rate of 90% or more (almost completely withered)),5 (Herbicidal rate of 90% or more (almost completely withered)),2 (Herbicidal rate of 20% or more and less than 40%),4 (Herbicidal rate of 70% or more and less than 90%),5 (Herbicidal rate of 90% or more (almost completely withered)),5 (Herbicidal rate of 90% or more (almost completely withered)),4 (Herbicidal rate of 70% or more and less than 90%),3 (Herbicidal rate of 40% or more and less than 70%),4 (Herbicidal rate of 70% or more and less than 90%),5 (Herbicidal rate of 90% or more (almost completely withered)),1 (Herbicidal rate of 5% or more and less than 20%),3 (Herbicidal rate of 40% or more and less than 70%),
CCCC(=O)Oc1c(C)nn(C)c(=O)c1-c1c(-c2ccccc2OCC)sc2cc(OC)ccc12 [3-071],5 (Herbicidal rate of 90% or more (almost completely withered)),5 (Herbicidal rate of 90% or more (almost completely withered)),3 (Herbicidal rate of 40% or more and less than 70%),5 (Herbicidal rate of 90% or more (almost completely withered)),5 (Herbicidal rate of 90% or more (almost completely withered)),5 (Herbicidal rate of 90% or more (almost completely withered)),5 (Herbicidal rate of 90% or more (almost completely withered)),4 (Herbicidal rate of 70% or more and less than 90%),5 (Herbicidal rate of 90% or more (almost completely withered)),5 (Herbicidal rate of 90% or more (almost completely withered)),5 (Herbicidal rate of 90% or more (almost completely withered)),5 (Herbicidal rate of 90% or more (almost completely withered)),4 (Herbicidal rate of 70% or more and less than 90%),5 (Herbicidal rate of 90% or more (almost completely withered)),5 (Herbicidal rate of 90% or more (almost completely withered)),5 (Herbicidal rate of 90% or more (almost completely withered)),5 (Herbicidal rate of 90% or more (almost completely withered)),
CCOc1cc(F)ccc1-c1sc2cc(OC)ccc2c1-c1c(O)c(C)nn(C)c1=O [3-078],,,,,,,,,,,,,,,,,,"F: southern crabgrass, herbicidal effect grade ([1]; 80 g/ha): 5 (Herbicidal rate of 90% or more (almost completely withered)); Q: false cleavers, herbicidal effect grade [2, 19]: 5 (Herbicidal rate of 90% or more (almost completely withered)); H: barnyard grass, herbicidal effect grade [3, 19]: 0 (Herbicidal rate of 5% or less (almost no effect)); herbicidal effect on barnyard grass (H) ([4]; 80 g/ha): 5 (Herbicidal rate of 90% or more (almost completely withered)); O: lambsquarters, herbicidal effect grade ([5]; 80 g/ha): 5 (Herbicidal rate of 90% or more (almost completely withered)); I: wild oat, herbicidal effect grade ([6]; 80 g/ha): 5 (Herbicidal rate of 90% or more (almost completely withered)); G: green foxtail, herbicidal effect grade ([7]; 80 g/ha): 4 (Herbicidal rate of 70% or more and less than 90%); J: blackgrass, herbicidal effect grade [8, 19]: 5 (Herbicidal rate of 90% or more (almost completely withered)); Herbicidal effect, B: Japanese bulrush [9, 19]: 5 (Herbicidal rate of 90% or more (almost completely withered)); N: redroot pigweed, herbicidal effect grade ([10]; 80 g/ha): 5 (Herbicidal rate of 90% or more (almost completely withered)); R: persian speedwell, herbicidal effect grade ([11]; 80 g/ha): 5 (Herbicidal rate of 90% or more (almost completely withered)); Herbicidal effect, A: late watergrass [12, 19]: 5 (Herbicidal rate of 90% or more (almost completely withered)); F: southern crabgrass, herbicidal effect grade [13, 19]: 4 (Herbicidal rate of 70% or more and less than 90%); P: chickweed, herbicidal effect grade [14, 19]: 5 (Herbicidal rate of 90% or more (almost completely withered)); L: windgrass, herbicidal effect grade ([15]; 80 g/ha): 5 (Herbicidal rate of 90% or more (almost completely withered)); herbicidal effect rating, A: late watergrass ([16]; AAH 80 g/ha): 1 (Herbicidal rate of 5% or more and less than 20%); herbicidal effect rating, C: oval-leafed pondweed ([17]; AAH 80 g/ha): 4 (Herbicidal rate of 70% or more and less than 90%)"
CCCC(=O)Oc1c(C)nn(C)c(=O)c1-c1c(-c2ccc(F)cc2OCC)sc2cc(OC)ccc12 [3-079],5 (Herbicidal rate of 90% or more (almost completely withered)),4 (Herbicidal rate of 70% or more and less than 90%),0 (Herbicidal rate of 5% or less (almost no effect)),5 (Herbicidal rate of 90% or more (almost completely withered)),5 (Herbicidal rate of 90% or more (almost completely withered)),5 (Herbicidal rate of 90% or more (almost completely withered)),5 (Herbicidal rate of 90% or more (almost completely withered)),2 (Herbicidal rate of 20% or more and less than 40%),5 (Herbicidal rate of 90% or more (almost completely withered)),4 (Herbicidal rate of 70% or more and less than 90%),5 (Herbicidal rate of 90% or more (almost completely withered)),5 (Herbicidal rate of 90% or more (almost completely withered)),4 (Herbicidal rate of 70% or more and less than 90%),4 (Herbicidal rate of 70% or more and less than 90%),5 (Herbicidal rate of 90% or more (almost completely withered)),5 (Herbicidal rate of 90% or more (almost completely withered)),5 (Herbicidal rate of 90% or more (almost completely withered)),
